The subject of test [1] is S. aureus 209P. Description: Antibiotic sensitivity, paper disc-agar diffusion method. Details: key: S (sensitive); R (resistant); I (intermediate). The class given is cell-based. The note with it: nutrient agar, 2 day's incubation at 28° C., Difco discs, amount/disc per antibiotic. A general note: A growth-free zone around the sample is the usual read-out of agar diffusion tests.

The test system of test [2] is E. coli NIHJ. The test is described as above. In kind it is cell-based. More on the design: key: S (sensitive); R (resistant); I (intermediate). The note with it: nutrient agar, 2 day's incubation at 28° C., Difco discs, amount/disc per antibiotic.
Test [3] concerns Strain G393-B445. The test is described as above. The class given is cell-based, Empedobacter sp. More on the design: key: S (sensitive); R (resistant); I (intermediate). Particulars: nutrient agar, 2 day's incubation at 28° C., Difco discs, amount/disc per antibiotic.
The test system of test [4] is Staphylococcus aureus A9856. The experiment in a line: MIC, serial two-fold dilution method (aerobic). In kind it is cell-based. Particulars: Staphylococcus aureus A9856; Mueller-Hinton agar; inoculum 10^4; read-out: minimum inhibitory concentration (MIC).
The subject of test [5] is Staphylococcus aureus A9601. The experiment in a line: MIC, serial two-fold dilution method (aerobic). The class given is cell-based. Particulars: Staphylococcus aureus A9601; Mueller-Hinton agar; inoculum 10^4; read-out: minimum inhibitory concentration (MIC).
For test [6], the system named is Staphylococcus aureus A20394. The experiment in a line: MIC, serial two-fold dilution method (aerobic). The class given is cell-based. The note with it: Staphylococcus aureus A20394; Mueller-Hinton agar; inoculum 10^4; read-out: minimum inhibitory concentration (MIC).
Test [7] concerns Proteus mirabilis A9554. Description: MIC, serial two-fold dilution method (aerobic). The class given is cell-based. The note with it: Proteus mirabilis A9554; Mueller-Hinton agar; inoculum 10^4; read-out: minimum inhibitory concentration (MIC).
For test [8], the system named is Staphylococcus aureus #193. The experiment in a line: MIC, serial two-fold dilution method (aerobic). The class given is cell-based. The note with it: Staphylococcus aureus #193; Mueller-Hinton agar; inoculum 10^4; read-out: minimum inhibitory concentration (MIC).
In test [9] the test system is Staphylococcus aureus A20610. The experiment in a line: MIC, serial two-fold dilution method (aerobic). The class given is cell-based. Particulars: Staphylococcus aureus A20610; Mueller-Hinton agar; inoculum 10^4; read-out: minimum inhibitory concentration (MIC).
Test [10] concerns Staphylococcus aureus A22421. Description: MIC, serial two-fold dilution method (aerobic). The class given is cell-based. The note with it: Staphylococcus aureus A22421; Mueller-Hinton agar; inoculum 10^4; read-out: minimum inhibitory concentration (MIC).
Test [11] deals with Staphylococcus aureus A9748. The experiment in a line: MIC, serial two-fold dilution method (aerobic). The class given is cell-based. The note with it: Staphylococcus aureus A9748; Mueller-Hinton agar; inoculum 10^4; read-out: minimum inhibitory concentration (MIC).
For test [12], the system named is Staphylococcus aureus BX-1633. Description: MIC, serial two-fold dilution method (aerobic). In kind it is cell-based. Particulars: BX1633; Staphylococcus aureus BX-1633; Mueller-Hinton agar; inoculum 10^4; read-out: minimum inhibitory concentration (MIC).
The subject of test [13] is Staphylococcus aureus Smith. Description: MIC, serial two-fold dilution method (aerobic). The note with it: Staphylococcus aureus Smith; Mueller-Hinton agar; inoculum 10^4; read-out: minimum inhibitory concentration (MIC). The class given is cell-based.
Test [14] relates to Proteus vulgaris A9436. The experiment in a line: MIC, serial two-fold dilution method (aerobic). The class given is cell-based. The note with it: Proteus vulgaris A9436; Mueller-Hinton agar; inoculum 10^4; read-out: minimum inhibitory concentration (MIC).
For test [15], the system named is Micrococcus flavus D-12. Description: MIC, serial two-fold dilution method (aerobic). In kind it is cell-based. The note with it: D12; Micrococcus flavus D-12; Mueller-Hinton agar; inoculum 10^4; read-out: minimum inhibitory concentration (MIC).
Test [16] has as its system Staphylococcus aureus 209P. The experiment in a line: MIC, serial two-fold dilution method (aerobic). Particulars: Staphylococcus aureus 209P; Mueller-Hinton agar; inoculum 10^4; read-out: minimum inhibitory concentration (MIC). The class given is cell-based.
Test [17] deals with Bacillus subtilis ATCC 6633. The experiment in a line: MIC, serial two-fold dilution method (aerobic). The class given is cell-based. Particulars: ATCC6633; Bacillus subtilis ATCC 6633; Mueller-Hinton agar; inoculum 10^4; read-out: minimum inhibitory concentration (MIC).
Test [18] has as its system Staphylococcus aureus A20701. Description: MIC, serial two-fold dilution method (aerobic). The class given is cell-based. The note with it: Staphylococcus aureus A20701; Mueller-Hinton agar; inoculum 10^4; read-out: minimum inhibitory concentration (MIC).
The test system of test [19] is Sarcina lutea PCI-1001. Description: MIC, serial two-fold dilution method (aerobic). In kind it is cell-based. The note with it: Micrococcus luteus, PCI1001; Sarcina lutea PCI-1001; Mueller-Hinton agar; inoculum 10^4; read-out: minimum inhibitory concentration (MIC).
For test [20], the system named is Escherichia coli NIHJ. Description: MIC, serial two-fold dilution method (aerobic). In kind it is cell-based. The note with it: Escherichia coli NIHJ; Mueller-Hinton agar; inoculum 10^4; read-out: minimum inhibitory concentration (MIC).
Test [21] deals with Pseudomonas aeruginosa D-113. The experiment in a line: MIC, serial two-fold dilution method (aerobic). The note with it: D113; Pseudomonas aeruginosa D-113; Mueller-Hinton agar; inoculum 10^4; read-out: minimum inhibitory concentration (MIC). The class given is cell-based.
Test [22] relates to Klebsiella pneumoniae D-11. Description: MIC, serial two-fold dilution method (aerobic). The note with it: D11; Klebsiella pneumoniae D-11; Mueller-Hinton agar; inoculum 10^4; read-out: minimum inhibitory concentration (MIC). In kind it is cell-based.
The test system of test [23] is Bacillus anthracis IID-115. Description: microbe, parasite or virus in culture. In kind it is cell-based. Particulars: Bacillus anthracis, IID115, read-out: minimum inhibitory concentration (MIC).
For test [24], the system named is Staphylococcus aureus A20239. Description: MIC, serial two-fold dilution method (aerobic). In kind it is cell-based. The note with it: Staphylococcus aureus A20239; Mueller-Hinton agar; inoculum 10^4; read-out: minimum inhibitory concentration (MIC).

Converted amounts (≈) assume the structure as drawn. *1 amine or outer side, *2 acyl side, *3 side chain or, on linkers, in order; H or OH if unused. Where a SMILES comes first, the peptide text is derived from it. Bridges are numbered along the chain shown (N, C = ends). Roman numbers before positions name the chains, in order. [ ]: non-standard residue; d: D form. Actinocin(9to1) = Cc1c2oc3c(C)ccc(C(=O)[*:1])c3nc-2c(C(=O)[*:2])c(N)c1=O; NMeV = CN[C@H](C(=O)O)C(C)C; Sar = CNCC(=O)O

On to `Cc1c2oc3c(C)ccc(C(=O)N[C@@H]4C(=O)N[C@H](C(C)C)C(=O)N5CCC[C@H]5C(=O)N(C)CC(=O)N(C)[C@@H](C(C)C)C(=O)O[C@@H]4C)c3nc-2c(C(=O)N[C@@H]2C(=O)N[C@H](C(C)C)C(=O)N3CCC[C@H]3C(=O)N(C)CC(=O)N(C)[C@@H](C(C)C)C(=O)O[C@@H]2C)c(N)c1=O` [Actinomycin D] (I: T[dV]P[Sar][NMeV] / II: T[dV]P[Sar][NMeV]; ester I:1-I:C, II:1-II:C; linker I:N-II:N via Actinocin(9to1)), for which the “Sensitivity S. aureus 209P” value in test [1] is on record as “S”. In addition, in test [2], the “Sensitivity E. coli NIHJ” value is given as “R”. Further, the “Sensitivity Strain G393-B445” value in [3] is “I”.

As for `NC[C@H]1O[C@H](O[C@H]2[C@H](O)[C@@H](O[C@H]3O[C@H](CO)[C@@H](O)[C@H](N)[C@H]3O)[C@H](N)C[C@@H]2N)[C@H](O)[C@@H](O)[C@@H]1O` [Kanamycin], the MIC in [4] is 0.8 µg/mL (≈ 1.65 µM); in test [5] it was 0.4 µg/mL (≈ 0.826 µM); in test [6], 0.8 µg/mL (≈ 1.65 µM); in test [7] it was 0.4 µg/mL (≈ 0.826 µM); in test [8] it was 0.8 µg/mL (≈ 1.65 µM); in test [9] it was 100 µg/mL (≈ 206 µM). In addition, the MIC in test [10] is over 100 µg/mL; in test [11], 1.6 µg/mL (≈ 3.3 µM); in test [12] it was 0.8 µg/mL (≈ 1.65 µM); in test [13], 0.4 µg/mL (≈ 0.826 µM); in test [14], 0.4 µg/mL (≈ 0.826 µM); in test [15] it was 3.1 µg/mL (≈ 6.4 µM). For the same compound, the MIC is 0.4 µg/mL (≈ 0.826 µM) in test [16]; 0.2 µg/mL (≈ 0.413 µM) in test [17]; 100 µg/mL (≈ 206 µM) in test [18]; 3.1 µg/mL (≈ 6.4 µM) in test [19]; 0.8 µg/mL (≈ 1.65 µM) in test [20]; over 100 µg/mL in test [21]. For the same compound, the MIC in test [22] is 0.2 µg/mL (≈ 0.413 µM); in [23] it was 0.4 µg/mL (≈ 0.826 µM); in test [24], over 100 µg/mL.

Regarding `CC1(C)S[C@@H]2[C@H](NC(=O)Cc3ccccc3)C(=O)N2[C@H]1C(=O)O` [Pencillin G], the “Sensitivity S. aureus 209P” value in [1] was “S”. Besides, the “Sensitivity E. coli NIHJ” value in [2] is given as “I”. Besides, the “Sensitivity Strain G393-B445” value in [3] is reported as “S”.

Consider `[H]/N=C(/N)N[C@H]1[C@H](O)[C@@H](O)[C@H](O[C@@H]2O[C@@H](C)[C@](O)(C=O)[C@H]2O[C@@H]2O[C@@H](CO)[C@H](O)[C@@H](O)[C@@H]2NC)[C@@H](N/C(N)=N\[H])[C@@H]1O` [Streptomycin], for which the “Sensitivity S. aureus 209P” value in test [1] is recorded as “I”. The “Sensitivity E. coli NIHJ” value in [2] is on record as “I”. Besides, the “Sensitivity Strain G393-B445” value in test [3] is recorded as “S”.

`CN(C)[C@@H]1C(O)=C(C(N)=O)C(=O)[C@@]2(O)C(O)=C3C(=O)c4c(O)cccc4[C@@](C)(O)[C@H]3C[C@@H]12` [Tetracycline]: the “Sensitivity S. aureus 209P” value in [1] is “S”. In addition, the “Sensitivity E. coli NIHJ” value in [2] is recorded as “S”. The “Sensitivity Strain G393-B445” value in test [3] is listed as “S”.

For Polymyxin B, the “Sensitivity S. aureus 209P” value in [1] is recorded as “R”. The “Sensitivity E. coli NIHJ” value in test [2] is recorded as “R”. Also, the “Sensitivity Strain G393-B445” value in test [3] is recorded as “R”.
